Laboratory results from patent US4130433A, “Industrial biocides” (Abbott Laboratories, priority 1977, dated 1978).

Each molecule was assayed on A.niger and P.funiculosum (assay: minimum inhibitory concentration (MIC) test, agar plates, fungal growth). Details: agar inoculated with 10,000 units each of A.niger and P.funiculosum; 30° C., 2 weeks; in µg/mL (unit assumed).
Format: cell-based
Method: In a minimum inhibitory concentration (MIC) test, the amount of the test compound needed to prevent fungal growth is established. In this test, agar containing the test compound at a specified concentration is inoculated with 1 ml of a broth containing 10,000 units each of A.niger and P.funiculosum. The agar plates inoculated in this fashion are incubated at 30° C. for 2 weeks and growth of the micro-organisms is determined by visual inspection to establish presence or absence of fungal growth. The compounds made according to Example 1 and their MIC data are shown in the following table, wherein X, Y, Y' and Z are as indicated in Structure I.

| SMILES | MIC |
| --- | --- |
| O=C1C(Cl)=C(Cl)C(=O)N1c1ccc(Sc2ccc([N+](=O)[O-])cc2)cc1 [X=Cl, Y=H, Y'=4-NO2, Z=S] | 50-100 |
| O=C1C(Cl)=C(Cl)C(=O)N1c1ccc(Oc2ccc(Cl)c(Cl)c2)c(Cl)c1 [X=Cl, Y=3-Cl, Y'=3,4-Cl2, Z=O] | > 2000 |
| COC(=O)c1cc(Oc2ccc(Cl)cc2Cl)ccc1N1C(=O)C(Cl)=C(Cl)C1=O [X=Cl, Y=2-CO2 Me, Y'=2,4-Cl2, Z=O] | 1000-1500 |
| O=C1C(Cl)=C(Cl)C(=O)N1c1ccc(Oc2ccc(Cl)cc2Cl)cc1 [X=Cl, Y=H, Y'=2,4-Cl2, Z=O] | 1000-1500 |

Further lines, results first:

| MIC | SMILES |
| --- | --- |
| 50-100 | O=C1C=CC(=O)N1c1ccc(Oc2ccc(Cl)cc2Cl)cc1 [X=H, Y=H, Y'=2,4-Cl2, Z=O] |
| 50-100 | O=C1C=CC(=O)N1c1ccc(Sc2ccc([N+](=O)[O-])cc2)cc1 [X=H, Y=H, Y'=4-NO2, Z=S] |
| 10- 50 | COC(=O)c1cc(Oc2ccc(Cl)cc2Cl)ccc1N1C(=O)C=CC1=O [X=H, Y=2-CO2 Me, Y'=2,4-Cl2, Z=O] |
| 500-1000 | O=C1C(Cl)=C(Cl)C(=O)N1c1ccc(Sc2ccccc2)cc1 [X=Cl, Y=H, Y'=H, Z=S, N-(p-phenylthiophenyl)-2,3-dichloromaleimide] |
| 100-200 | O=C1C=CC(=O)N1c1ccc(Sc2ccccc2)cc1 [X=H, Y=H, Y'=H, Z=S] |
